What was measured:
Type in all cases: in vivo
[1] = tested on: spring barley (Hordeum vulgare); experiment: Test C pre-/postemergence plant response; conditions: Preemergence
In short: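 Pre- and postemergence treatment, visual 0–100 rating vs controls at 15–25 days.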

[2] = tested on: barnyardgrass (Echinochloa crus-galli); experiment: Test E pre-/postemergence plant response; conditions: scale 0 to 100
Excerpt: (§1) Seeds of plant species selected from bermudagrass (Cynodon dactylon), Surinam grass (Brachiaria decumbens), large crabgrass (Digitaria sanguinalis), green foxtail (Setaria viridis), goosegrass (Eleusine indica), johnsongrass (Sorghum halepense), kochia (Kochia scoparia), pitted morningglory (Ipomoea lacunosa), purple nutsedge (Cyperus rotundus), common ragweed (Ambrosia elation), black mustard (Brassica nigra), guineagrass (Panicum maximum), dallisgrass (Paspalum dilatatum), barnyardgrass (Echinochloa crus-galli), southern (S.) sandbur (Cenchrus echinatus), common sowthistle (Sonchus oleraceous), prickly sida (Sida spinosa), Italian ryegrass (Lolium multiflorum), common purslane (Portulaca oleracea), broadleaf signalgrass (Brachiaria platyphylla), common groundsel (Senecio vulgaris), common chickweed (Stellaria media), Virginia (V.) dayflower (Commelina virginica), tropical (T.) spiderwort (Commelina benghalensis), annual bluegrass (Poa annua), naked crabgrass (Digitaria nuda), itchgrass (Rottboellia cochinchinensis), quackgrass (Elytrigia repens), Canada horseweed (Conyza canadensis), field bindweed (Convolvulus arvensis), spanishneedles (Bidens bipinnata), common mallow (Malva sylvestris) and Russian thistle (Salsola kali) were planted and treated preemergence with test chemicals formulated in a non-phytotoxic solvent mixture which included a surfactant. At the same time, plants selected from these weed species were treated with postemergence applications of some of the test chemicals formulated in the same manner. Plants ranged in height from 2 to 18 cm (1- to 4-leaf stage) for postemergence treatments.
(§2) Treated plants and controls were maintained in a greenhouse for 14 to 21 days, after which time all species were compared to controls and visually evaluated. Plant response ratings, summarized in Table E, are based on a scale of 0 to 100 where 0 is no effect and 100 is complete control. A dash (-) response means no test result.

[3] = tested on: bermudagrass (Cynodon dactylon); experiment: Test E pre-/postemergence plant response; conditions: scale 0 to 100
Excerpt: as §1, §2

[4] = tested on: common mallow (Malva sylvestris); experiment: Test E pre-/postemergence plant response; conditions: scale 0 to 100
Excerpt: as §1, §2

[5] = tested on: common purslane (Portulaca oleracea); experiment: Test E pre-/postemergence plant response; conditions: scale 0 to 100
Excerpt: as §1, §2

[6] = tested on: pitted morningglory (Ipomoea lacunosa); experiment: Test E pre-/postemergence plant response; conditions: scale 0 to 100
Excerpt: as §1, §2

[7] = tested on: quackgrass (Elytrigia repens); experiment: Test E pre-/postemergence plant response; conditions: scale 0 to 100
Excerpt: as §1, §2

[8] = tested on: southern (S.) sandbur (Cenchrus echinatus); experiment: Test E pre-/postemergence plant response; conditions: scale 0 to 100
Excerpt: as §1, §2

For `Cc1cc(-c2ccc(Cl)cc2)nn1-c1c(OC(=O)C(C)C)cnn(C)c1=O` [Compound 34], the “Plant response rating, Barley, Spring” value ([1]; 8 g ai/ha, scale 0 to 100 (0 no effect, 100 complete control)) was 0, the “Plant response rating, Barley, Spring” value ([1]; 16 g ai/ha, scale 0 to 100 (0 no effect, 100 complete control)) was 0 and the “Plant response rating, Barley, Spring” value ([1]; 31 g ai/ha, scale 0 to 100 (0 no effect, 100 complete control)) was 0. The “Plant response rating, Barley, Spring” value ([1]; 62 g ai/ha, scale 0 to 100, 0 no effect, 100 complete control) was 70, the “Plant response rating, Barnyardgrass” value ([2]; 16 g ai/ha, Preemergence) was 80 and the “Plant response rating, Barnyardgrass” value ([2]; 31 g ai/ha, Preemergence) was 100. For the same molecule, the “Plant response rating, Barnyardgrass” value ([2]; 62 g ai/ha, Preemergence) was 100, the “Plant response rating, Barnyardgrass” value ([2]; Postemergence, 8 g ai/ha) was 95 and the “Plant response rating, Barnyardgrass” value ([2]; Postemergence, 16 g ai/ha) was 100. The “Plant response rating, Barnyardgrass” value ([2]; Postemergence, 31 g ai/ha) was 100, the “Plant response rating, Barnyardgrass” value ([2]; Postemergence, 62 g ai/ha) was 100 and the “Plant response rating, Bermudagrass” value ([3]; 16 g ai/ha, Preemergence) was 40. The “Plant response rating, Bermudagrass” value ([3]; 31 g ai/ha, Preemergence) was 90, the “Plant response rating, Bermudagrass” value ([3]; 62 g ai/ha, Preemergence) was 100 and the “Plant response rating, Bermudagrass” value ([3]; Postemergence, 8 g ai/ha) was 20. For the same molecule, the “Plant response rating, Bermudagrass” value ([3]; Postemergence, 16 g ai/ha) was 50, the “Plant response rating, Bermudagrass” value ([3]; Postemergence, 31 g ai/ha) was 80 and the “Plant response rating, Bermudagrass” value ([3]; Postemergence, 62 g ai/ha) was 95. The “Plant response rating, Mallow” value ([4]; 16 g ai/ha, Preemergence) was 0, the “Plant response rating, Mallow” value ([4]; 31 g ai/ha, Preemergence) was 0 and the “Plant response rating, Mallow” value ([4]; 62 g ai/ha, Preemergence) was 0. The “Plant response rating, Mallow” value ([4]; Postemergence, 8 g ai/ha) was 0, the “Plant response rating, Mallow” value ([4]; Postemergence, 16 g ai/ha) was 0 and the “Plant response rating, Mallow” value ([4]; Postemergence, 31 g ai/ha) was 0. The “Plant response rating, Mallow” value ([4]; Postemergence, 62 g ai/ha) was 0, the “Plant response rating, Purslane” value ([5]; 16 g ai/ha, Preemergence) was 0 and the “Plant response rating, Purslane” value ([5]; 31 g ai/ha, Preemergence) was 0. For the same molecule, the “Plant response rating, Purslane” value ([5]; Postemergence, 8 g ai/ha) was 0, the “Plant response rating, Purslane” value ([5]; Postemergence, 16 g ai/ha) was 0 and the “Plant response rating, Purslane” value ([5]; Postemergence, 31 g ai/ha) was 0. For the same molecule, the “Plant response rating, Purslane” value ([5]; Postemergence, 62 g ai/ha) was 0, the “Plant response rating, Morningglory” value ([6]; 16 g ai/ha, Preemergence) was 0 and the “Plant response rating, Morningglory” value ([6]; 31 g ai/ha, Preemergence) was 0. The “Plant response rating, Morningglory” value ([6]; 62 g ai/ha, Preemergence) was 0, the “Plant response rating, Morningglory” value ([6]; Postemergence, 8 g ai/ha) was 0 and the “Plant response rating, Morningglory” value ([6]; Postemergence, 16 g ai/ha) was 0. The “Plant response rating, Morningglory” value ([6]; Postemergence, 31 g ai/ha) was 0, the “Plant response rating, Morningglory” value ([6]; Postemergence, 62 g ai/ha) was 30 and the “Plant response rating, Quackgrass” value ([7]; 16 g ai/ha, Preemergence) was 20. For the same molecule, the “Plant response rating, Quackgrass” value ([7]; 31 g ai/ha, Preemergence) was 50, the “Plant response rating, Quackgrass” value ([7]; 62 g ai/ha, Preemergence) was 70 and the “Plant response rating, Quackgrass” value ([7]; Postemergence, 8 g ai/ha) was 0. For the same molecule, the “Plant response rating, Quackgrass” value ([7]; Postemergence, 16 g ai/ha) was 0, the “Plant response rating, Quackgrass” value ([7]; Postemergence, 31 g ai/ha) was 30 and the “Plant response rating, Quackgrass” value ([7]; Postemergence, 62 g ai/ha) was 40. The “Plant response rating, Sandbur, S.” value ([8]; 16 g ai/ha, Preemergence) was 75, the “Plant response rating, Sandbur, S.” value ([8]; 31 g ai/ha, Preemergence) was 90 and the “Plant response rating, Sandbur, S.” value ([8]; 62 g ai/ha, Preemergence) was 100. For the same molecule, the “Plant response rating, Sandbur, S.” value ([8]; Postemergence, 8 g ai/ha) was 75, the “Plant response rating, Sandbur, S.” value ([8]; Postemergence, 16 g ai/ha) was 75 and the “Plant response rating, Sandbur, S.” value ([8]; Postemergence, 31 g ai/ha) was 90. For the same molecule, the “Plant response rating, Sandbur, S.” value ([8]; Postemergence, 62 g ai/ha) was 100.

Reference: patent US20100267561A1, “HERBICIDAL PYRIDAZINONE DERIVATIVES” (priority 2007, published 2010)
